Columns and labels:
[1] = target: T1, CA I (Homo sapiens, UniProt P00915); assay: Fluorescent thermal shift assay (TSA), CA I; type: binding; details: 37° C., pH 7.0, read-out: Dissociation constants Kd to CA I (converted)
[2] = target: T2, CA VII (Homo sapiens, UniProt P43166); assay: Fluorescent thermal shift assay (TSA), CA VII; type: binding; details: 37° C., pH 7.0, read-out: Dissociation constants Kd to CA VII (converted)
[3] = target: T3, CA XII (Homo sapiens, UniProt O43570); assay: Fluorescent thermal shift assay (TSA), CA XII; type: binding; details: 37° C., pH 7.0, read-out: Dissociation constants Kd to CA XII (converted)
[4] = target: T4, CA XIII (Homo sapiens, UniProt Q8N1Q1); assay: Fluorescent thermal shift assay (TSA), CA XIII; type: binding; details: 37° C., pH 7.0, read-out: Dissociation constants Kd to CA XIII
[5] = target: T5, CA II (Homo sapiens, UniProt P00918); assay: Fluorescent thermal shift assay (TSA), CA II; type: binding; details: 37° C., pH 7.0, read-out: Dissociation constants Kd to CA II (converted)
[6] = target: T5, CA II; assay: CO2 hydration assay (stopped-flow); type: biochemical
[7] = target: T5, CA II; assay: biochemical
[8] = target: T2, CA VII; assay: Isothermal titration calorimetry (ITC), CA VII; type: binding; details: 37° C., pH 7.0, read-out: Dissociation constants Kd to CA VII
[9] = target: T3, CA XII; assay: Isothermal titration calorimetry (ITC), CA XII; type: binding; details: 37° C., pH 7.0, read-out: Dissociation constants Kd to CA XII
[10] = target: T4, CA XIII; assay: biochemical
[11] = target: T1, CA I; assay: Isothermal titration calorimetry (ITC), CA I; type: binding; details: 37° C., pH 7.0, read-out: Dissociation constants Kd to CA I

T2 sequence (P43166 whole entry): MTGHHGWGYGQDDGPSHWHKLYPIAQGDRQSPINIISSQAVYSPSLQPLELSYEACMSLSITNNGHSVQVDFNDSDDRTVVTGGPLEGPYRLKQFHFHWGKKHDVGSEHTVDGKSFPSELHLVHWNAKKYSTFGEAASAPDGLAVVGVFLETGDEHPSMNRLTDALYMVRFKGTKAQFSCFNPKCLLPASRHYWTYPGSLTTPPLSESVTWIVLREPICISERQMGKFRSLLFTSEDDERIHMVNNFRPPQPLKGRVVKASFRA
T4 sequence (Q8N1Q1 whole entry): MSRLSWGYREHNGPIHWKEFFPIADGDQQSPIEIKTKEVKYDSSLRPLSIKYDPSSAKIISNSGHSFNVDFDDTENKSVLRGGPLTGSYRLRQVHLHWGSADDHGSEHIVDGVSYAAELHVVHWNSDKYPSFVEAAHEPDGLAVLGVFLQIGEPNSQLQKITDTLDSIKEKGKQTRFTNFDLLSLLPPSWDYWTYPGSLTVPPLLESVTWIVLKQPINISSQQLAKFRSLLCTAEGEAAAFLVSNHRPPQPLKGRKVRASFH
T3 sequence (O43570 30-291 limits assumed): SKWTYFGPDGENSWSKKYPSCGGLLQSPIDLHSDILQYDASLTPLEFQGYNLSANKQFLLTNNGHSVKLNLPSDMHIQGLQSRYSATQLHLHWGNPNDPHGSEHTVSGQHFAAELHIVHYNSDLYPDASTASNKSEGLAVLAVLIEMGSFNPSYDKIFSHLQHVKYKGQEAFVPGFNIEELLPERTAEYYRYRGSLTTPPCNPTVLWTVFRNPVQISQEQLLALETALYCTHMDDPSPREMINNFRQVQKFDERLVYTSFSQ
T1 sequence (P00915 whole entry): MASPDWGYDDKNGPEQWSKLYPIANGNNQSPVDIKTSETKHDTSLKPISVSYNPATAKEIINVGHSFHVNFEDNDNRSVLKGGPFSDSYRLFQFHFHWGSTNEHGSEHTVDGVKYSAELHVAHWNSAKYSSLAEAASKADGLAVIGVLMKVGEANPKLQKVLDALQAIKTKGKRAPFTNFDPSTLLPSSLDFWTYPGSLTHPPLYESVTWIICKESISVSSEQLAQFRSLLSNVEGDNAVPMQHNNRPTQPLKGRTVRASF

Molecule	Kd [1]	Kd [2]	Kd [3]	Kd [4]	Kd [5]	Ki [6]	Kd [7]	Kd [8]	Kd [9]	Kd [10]	Kd [11]
3-{[4-(aminosulfonyl)-2,3,5,6-tetrafluorophenyl]thio}-[1,2,3]thiadiazolo[3,4-a]benzimidazole [Compound 2w]	0.0004 µM	0.013 µM	0.11 µM								
CC(C)Nc1c(F)c(SCCc2ccccc2)c(F)c(F)c1S(N)(=O)=O [Compound 3a, 2-(isopropylamino)-3,5,6-trifluoro-4-[(2-phenylethyl)thio]benzenesulfonamide]	3.3 µM	0.13 µM	2.9 µM	0.067 µM	0.5 µM						
CC(Nc1c(F)c(SCCc2ccccc2)c(F)c(F)c1S(N)(=O)=O)c1ccccc1 (stereo not shown) [Compound 3d, 2-[(1-phenylethyl)amino]-3,5,6-trifluoro-4-[(2-phenylethyl)thio]benzenesulfonamide]	1.7 µM	4 µM	5 µM	0.04 µM	3.3 µM						
NS(=O)(=O)c1c(F)c(F)c(SCCc2ccccc2)c(F)c1NC1CCCCC1 [Compound 3f, 2-(cyclohexylamino)-3,5,6-trifluoro-4-[(2-phenylethyl)thio]benzenesulfonamide]	25 µM	0.17 µM	0.5 µM	0.5 µM	0.25 µM						
NS(=O)(=O)c1c(F)c(F)c(SCCc2ccccc2)c(F)c1NC1Cc2ccccc2C1 [Compound 3l, 2-(2,3-dihydro-1H-inden-2-ylamino)-3,5,6-trifluoro-4-[(2-phenylethyl)thio]benzenesulfonamide]	5 µM	4 µM	1.7 µM	0.1 µM	3.3 µM						
NS(=O)(=O)c1c(F)c(F)c(SCCO)c(F)c1N[C@H]1CCc2ccccc21 [Compound 4e, 2-[(1S)-2,3-dihydro-1H-inden-1-ylamino]-3,5,6-trifluoro-4-[(2-hydroxyethyl)thio]benzenesulfonamide]	8.3 µM	1.1 µM	1.25 µM	0.0333 µM	2.78 µM	0.5 µM					
NS(=O)(=O)c1c(F)c(F)cc(F)c1NC1CCCCCCC1 [Compound 8a, 2-(cyclooctylamino)-3,5,6-trifluorobenzenesulfonamide]	0.167 µM	0.167 µM	0.833 µM	0.1 µM	0.2 µM						
CNc1c(F)c(S(N)(=O)=O)c(F)c(F)c1S(=O)(=O)CCc1ccccc1 [Compound 9a, 3-(methylamino)-2,5,6-trifluoro-4-[(2-phenylethyl)sulfonyl]benzenesulfonamide]	0.067 µM	0.0083 µM		0.0013 µM							
NS(=O)(=O)c1c(F)c(F)c(S(=O)(=O)CCc2ccccc2)c(NCc2ccccc2)c1F [Compound 9c, 3-(benzylamino)-2,5,6-trifluoro-4-[(2-phenylethyl)sulfonyl]benzenesulfonamide]	0.056 µM	0.005 µM		0.0025 µM							
NS(=O)(=O)c1c(F)c(F)c(S(=O)(=O)CCc2ccccc2)c(NCCc2ccccc2)c1F [Compound 9d, 3-[(2-phenylethy)amino]-2,5,6-trifluoro-4-[(2-phenylethyl)sulfonyl]benzenesulfonamide]	0.5 µM	0.004 µM	0.033 µM	0.0067 µM	0.017 µM						
COc1cccc(OC)c1CNc1c(F)c(S(N)(=O)=O)c(F)c(F)c1S(=O)(=O)CCc1ccccc1 [Compound 9h, 3-[(2,6-dimethoxybenzyl)amino]-2,5,6-trifluoro-4-[(2-phenylethyl)sulfonyl]benzenesulfonamide]	0.0588 µM	0.667 µM	0.167 µM	0.0083 µM	0.0222 µM						
COc1ccc(CNc2c(F)c(S(N)(=O)=O)c(F)c(F)c2S(=O)(=O)CCc2ccccc2)cc1OC [Compound 9i, 3-[(3,4-dimethoxybenzyl)amino]-2,5,6-trifluoro-4-[(2-phenylethyl)sulfonyl]benzenesulfonamide]	0.213 µM	0.0067 µM	0.25 µM	0.0033 µM	0.0222 µM						
NS(=O)(=O)c1c(F)c(F)c(S(=O)(=O)CCc2ccccc2)c(NC23CC4CC(CC(C4)C2)C3)c1F [Compound 9j, 3-(1-adamantylamino)-2,5,6-trifluoro-4-[(2-phenylethyl)sulfonyl]benzenesulfonamide]	0.5 µM	0.005 µM	0.017 µM	0.0056 µM	0.05 µM						
NS(=O)(=O)c1c(F)c(F)c(S(=O)(=O)CCc2ccccc2)c(N[C@@H](c2ccccc2)[C@H](O)c2ccccc2)c1F [Compound 9n, 3-{[(1S,2R)-2-hydroxy-1,2-diphenylethyl]amino}-2,5,6-trifluoro-4-[(2-phenylethyl)sulfonyl]benzenesulfonamide]	1.7 µM	0.01 µM	0.25 µM	0.0056 µM	0.033 µM						
NS(=O)(=O)c1c(F)c(F)c(S(=O)(=O)CCc2ccccc2)c(N[C@H](c2ccccc2)[C@@H](O)c2ccccc2)c1F [Compound 9o, 3-{[(1R,2S)-2-hydroxy-1,2-diphenylethyl]amino}-2,5,6-trifluoro-4-[(2-phenylethyl)sulfonyl]benzenesulfonamide]	0.77 µM	0.04 µM	0.4 µM	0.0067 µM	0.091 µM						
NS(=O)(=O)c1c(F)c(F)c(S(=O)(=O)CCO)c(NCc2ccccc2)c1F [Compound 10a, 3-(benzylamino)-2,5,6-trifluoro-4-[(2-hydroxyethyl)sulfonyl]benzenesulfonamide]	0.2 µM	0.13 µM		0.014 µM			0.139 µM	0.405 µM	0.0122 µM	0.0452 µM	0.13 µM
COc1cccc(OC)c1CNc1c(F)c(S(N)(=O)=O)c(F)c(F)c1S(=O)(=O)CCO [Compound 10d, 3-[(2,6-dimethoxybenzyl)amino]-2,5,6-trifluoro-4-[(2-hydroxyethyl)sulfonyl]benzenesulfonamide]	0.2 µM	0.04 µM	0.0667 µM	0.025 µM	0.0167 µM						
COc1ccc(CNc2c(F)c(S(N)(=O)=O)c(F)c(F)c2S(=O)(=O)CCO)cc1OC [Compound 10e, 3-[(3,4-dimethoxybenzyl)amino]-2,5,6-trifluoro-4-[(2-hydroxyethyl)sulfonyl]benzenesulfonamide]	0.0833 µM	0.0143 µM	0.0667 µM	0.0043 µM	0.025 µM						

— patent US9725467B2, “Fluorinated benzenesulfonamides as inhibitors of carbonic anhydrase” (VILNIUS UNIVERSITY, priority 2012, dated 2017)
